From patent US10077436B2, “Beta-glucosidase enzymes for increased biomass saccharification” (Edeniq, Inc., priority 2013, dated 2018)

Experiments:
[1] = system: A-BG (Accellerase® BG from DuPont), commercial beta-glucosidase; experiment: BG kinetics, pNPG hydrolysis assay with glucose as competitive inhibitor, A-BG; assay type: biochemical
Protocol: The kinetic properties of beta glucosidase are important for cellulosic hydrolysis, since in commercial situations a wide range of substrate concentrations and different product inhibition conditions will be encountered. In this example, a Michaelis-Menten kinetics model was used to describe BG kinetics.
(§1) One pNPG unit is defined as the amount of enzyme that produces 1 μmol of pNP per min. Briefly, to determine BG activity, 25 μL of diluted enzyme in 200 mM sodium acetate buffer (pH 5.0) was mixed with 25 μL of the same buffer and 25 μL of RO water (or glucose solution for the kinetic study) and the mixture was preincubated at 50° C. for 5 min. The reaction was initiated by adding 25 μL of 10 mM pNPG in 200 mM sodium acetate buffer (pH 5.0) and the mixture was incubated at 50° C. for 10 min. The reaction was then terminated by adding 100 μL of 0.25 M sodium carbonate, and the amount of pNP produced was determined by measuring absorbance at 405 nm using a predetermined calibration curve.
The range of substrate concentration was chosen to show detectable activity at the lowest concentration and saturation stage at high substrate concentration.
(§2) To determine the kinetic properties, a competitive inhibition mechanism was hypothesized as proposed in the literature (Chauve et al, 2010; Krogh et al, 2010). The Michaelis-Menten equation with the competitive inhibition term can be expressed in Equation (1), where [S] is the substrate concentration (mM), [I] is the inhibitor concentration (mM), V is the rate of product formation (mM/min), Vmax is the maximal rate of product formation (mM/min), Km is the Michaelis-Menten constant and Ki is the inhibition constant. The turnover number, Kcat, can be calculated by Equation (2), where [Et] is the total amount of enzyme.
(§3) Conventionally, linearization methods can be used to determine the kinetic parameters based on Equation (1). Three common linear plots used are Lineweaver-Burke, Eadie-Hofstee and Hanes plots (Rogers and Gibon, 2009). However, these linearized versions of the Michaelis-Menten equation often produce substantial errors in parameter estimation. […] All of the activity data at different substrate levels and different inhibitor levels were fit simultaneously according to the full nonlinear equation for competitive enzyme inhibition as expressed in Equation (1). Thus, Vmax, Km and Ki can be determined simultaneously from this fitting process, and Km/Ki can then be calculated. Kcat can be obtained by Equation (2) and Kcat/Km can be calculated accordingly.
The above experimental data were fit in the competitive inhibition model as expressed in Equation (1) by simultaneous nonlinear regression.

[2] = system: S-BG (Novozymes SP188 from Sigma), commercial beta-glucosidase; experiment: BG kinetics, pNPG hydrolysis assay with glucose as competitive inhibitor, S-BG; assay type: biochemical; settings: pH 5.0, 50° C.
Source text: The kinetic properties of beta glucosidase are important for cellulosic hydrolysis, since in commercial situations a wide range of substrate concentrations and different product inhibition conditions will be encountered. In this example, a Michaelis-Menten kinetics model was used to describe BG kinetics. To determine these kinetic properties, BG activity assays using standard substrates pNPG and cellobiose were employed. yEdQ745-BG (wild type) and yEdQ885-BG (improved), were compared with two commercial BGs, A-BG (Accellerase®) BG from Dupont) and S-BG (Novozymes SP188 from Sigma).
as §1, with “BG activity assay using pNPG is one of the two commonly used standard assays to measure BG activity, which utilizes hydrolysis of p-nitrophenyl-β-D-glucopyranoside (pNPG) by BG into a yellow colored product, p-nitrophenol (pNP), that has a strong absorbance at 405 nm. One” for “One”
The range of substrate concentration was chosen to show detectable activity at the lowest concentration and saturation stage at high substrate concentration. The upper limit of inhibitor (glucose) level was chosen to get as close as possible to the real conditions during saccharification (˜4% w/v glucose) and have a detectable residual activity.
as §2, §3
The above experimental data were fit in the competitive inhibition model as expressed in Equation (1) by simultaneous nonlinear regression. The order of maximum velocity (Vmax) is A-BG>yEdQ885-BG>S-BG≈yEdQ745-BG. […] Nevertheless, the in-house BGs have much higher dissociation constant for inhibitor (Ki), indicating higher tolerance to product inhibition. Consistent with Vmax, the order of turnover number (Kcat) is A-BG>yEdQ885-BG>S-BG≈yEdQ745-BG. With much lower Km and much higher Kcat, A-BG has a considerably higher catalytic efficiency (Kcat/Km) than the other enzymes. The catalytic efficiency of S-BG and yEdQ885-BG is quite close, which is higher than that of yEdQ745-BG. […]

Question: For `OC[C@H]1OC(O)[C@H](O)[C@@H](O)[C@@H]1O` (stereo partly shown) [glucose], which “loss of activity under glucose inhibition” value ([1]; 9 g/L initial glucose, 0.08 mM pNPG) is on record?
Answer: Its value is “lost activity completely”.

Question: What about the “maximum relative activity under glucose inhibition” value ([1]; 36 g/L initial glucose, high pNPG concentration, relative to maximum activity without glucose) of the same compound?
Answer: Its value is 1.5%.

Question: What about the “loss of activity under glucose inhibition” value ([1]; 36 g/L initial glucose, pNPG below 1.875 mM) of the same compound?
Answer: The value was “activity was completely lost”.

Question: And the Km/Ki ([1]; inhibitor influence, Km for pNPG / Ki for glucose, pH 5.0, 50° C.)?
Answer: The Km/Ki was 0.22.

Question: And the Ki ([1]; pNPG substrate, competitive inhibition, pH 5.0, 50° C.)?
Answer: Its Ki is 460 ± 50 µM.

Question: And the Km/Ki ([2]; inhibitor influence, Km for pNPG / Ki for glucose)?
Answer: Its Km/Ki is 0.52.

Question: What about the Ki ([2]; pNPG substrate, competitive inhibition) of the same compound?
Answer: The Ki was 810 ± 110 µM.
